In US7799915B2, “Anilino-pyrimidine analogs” (Wyeth LLC, priority 2004, dated 2010):

system: IκBα in Hela cells treated with TNFα; assay: Western Analysis of IκBα; assay type: cell-based; settings: Hela cells treated with compounds for 30 min before addition of TNFα (10 μg/ml), harvested after one hour; mouse anti-IκBα antibody
Method: Hela cells are plated at 6-well plate for 24 hours and treated with compounds for 30 min before the addition of TNFα (10 μg/ml). After one hour, Hela cells are harvested in MPER reagent (Pierce, Rockford, Ill.) containing 400 mM NaCl. Protein from all samples is quantified by the Bradford method. Cell lysates containing 30 μg of protein are electrophoresed on a 12% SDS-PAGE gel and transferred to a PVDF membrane using a Bio Rad liquid transfer apparatus. The PVDF membrane is incubated in TBST (TBS with 0.1% Tween-20) with 3% milk for 15 minutes before the addition of the first antibody, mouse anti-IκBα (Santa Cruz). After overnight incubation, the PVDF membrane is washed 3 times with TBST and incubated with secondary antibodies coupled with horseradish peroxidase (Transduction Labs) for one hour. The PVDF membrane is then washed 3 times with TBST and protein is detected using an enhanced chemiluminescence detection system (Pierce).

Row | SMILES | result in Western analysis of IκBα
1 | NS(=O)(=O)c1ccc(Nc2nccc(-c3ccc(Cl)s3)n2)cc1 [compound 4] | positive result
2 | NS(=O)(=O)c1ccc(Nc2nccc(-c3ccc(C#Cc4ccccn4)s3)n2)cc1 [compound 35] | slightly positive result
3 | O=S(=O)(NCCCO)c1ccc(Nc2nccc(-c3ccc(C(F)(F)F)cc3)n2)cc1 [compound 68] | positive result
4 | COc1ccc(-c2ccnc(Nc3ccc(S(=O)(=O)NCCN(C)C)c(C(F)(F)F)c3)n2)cc1F [compound 167] | slightly positive result
5 | COc1ccc(-c2ccnc(Nc3ccc(S(=O)(=O)NCCCN(C)C)c(Cl)c3)n2)cc1F [compound 173] | positive result
6 | NS(=O)(=O)c1ccc(Nc2nccc(-c3ccc(/C=C/CO)cc3)n2)cc1 [compound 272] | positive result
